Results on 11 compounds are retold here after ChEMBL document CHEMBL1201862, “PubChem BioAssay data set” (2004).

Holding throughout (assay): growth of human tumour cells (NCI), 48 h
Assay [1] deals with OVCAR-8.
For assay [2], the system named is SNB-75.
Assay [3] deals with A549.
Assay [4] concerns ACHN.
For assay [5], the system named is RPMI-8226.
For assay [6], the system named is MDA-N.
Assay [7] deals with HCT-116.
For assay [8], the system named is Malme-3M.
The subject of assay [9] is UO-31.
Assay [10] relates to RXF 393.
For assay [11], the system named is A498.
The test system of assay [12] is DU-145.
For assay [13], the system named is HL-60.
The subject of assay [14] is UACC-257.
Assay [15] deals with HOP-62.
In assay [16] the test system is NCI/ADR-RES.
For assay [17], the system named is MDA-MB-435.
Assay [18] concerns U-251.
Assay [19] relates to M14.
For assay [20], the system named is T47D.

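Where inhibition never reached the appropriate level, the endpoint shown equals the highest concentration tested. Otherwise, values were interpolated linearly from a five-concentration, 48-hour dose response in 96-well plates. Here, GI50 denotes the concentration required for 50% inhibition of growth.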 The source made the active and inactive calls. No stated cut-off is given here; in the data, active = GI50 up to about 1.1 µM and inactive = higher. A value given as a limit tells only on which side of the number the result lay.

With `C=CCn1c(=O)c(-c2ccccc2)c(O)c2ccccc21`, the GI50 in assay [1] is > 100 µM (inactive); in assay [2], 94 µM (inactive); in assay [3], > 100 µM (inactive); in assay [4], > 100 µM (inactive); in [5], > 100 µM (inactive); in [6], > 100 µM (inactive). Further, the GI50 in [7], in [8], in [9], in assay [10], in assay [11] and in assay [12] was > 100 µM (inactive) each time. Moreover, the GI50 in assay [13], in [14], in assay [15], in assay [16], in assay [17] and in assay [18] was > 100 µM (inactive) each time.
Regarding `Cn1ccnc1Sc1ccc(/C=N\NC(=O)c2cccc(F)c2)cc1[N+](=O)[O-]`, the GI50 in assay [1] was 21.7 µM (inactive); in [2], 27 µM (inactive); in assay [3], 69.3 µM (inactive); in assay [4] it was > 100 µM (inactive); in [5], > 100 µM (inactive); in [7] it was 83.9 µM (inactive). Besides, the GI50 in assay [8] was > 100 µM (inactive); in assay [9], > 100 µM (inactive); in [10] it was 34.8 µM (inactive); in assay [11], 29.8 µM (inactive); in [19], > 100 µM (inactive); in assay [12] it was 71.6 µM (inactive). Further, the GI50 in [13] is > 100 µM (inactive); in assay [14] it was > 100 µM (inactive); in [15], 37.3 µM (inactive); in assay [16], 79.3 µM (inactive); in assay [17] it was 61.1 µM (inactive); in assay [20], 36.1 µM (inactive). Further, the GI50 in assay [18] is 21.1 µM (inactive).
Take `c1ccc2sc(C3(N4CCCC4)CCCCCC3)cc2c1`: the GI50 in assay [1] was 17.9 µM (inactive); in assay [2], 13.5 µM (inactive); in assay [3] it was 19.6 µM (inactive); in [4], 23.6 µM (inactive); in assay [6], 15.7 µM (inactive); in [7], 12.5 µM (inactive). Moreover, the GI50 in assay [9] was 12.8 µM (inactive); in assay [10], 12.3 µM (inactive); in assay [11], 16.6 µM (inactive); in assay [19], 14.8 µM (inactive); in assay [12], 22.4 µM (inactive); in assay [13], 17.4 µM (inactive). For the same compound, the GI50 in assay [14] is 16 µM (inactive); in assay [15], 18.5 µM (inactive); in [16], 19.7 µM (inactive); in [17], 16.4 µM (inactive); in [18] it was 17.2 µM (inactive).
For `O=C(CN1CCOCC1)c1ccc2[nH]c(=O)oc2c1`, the GI50 in assay [1] is > 100 µM (inactive); in assay [2] it was 77.4 µM (inactive); in [4] it was > 100 µM (inactive); in [5] it was > 100 µM (inactive); in assay [6] it was > 100 µM (inactive); in [7] it was > 100 µM (inactive). Further, the GI50 is > 100 µM (inactive) in assay [8]; 41.9 µM (inactive) in assay [9]; > 100 µM (inactive) in [10]; > 100 µM (inactive) in assay [11]; > 100 µM (inactive) in assay [19]; > 100 µM (inactive) in assay [12]. For the same compound, the GI50 in assay [13], in assay [14], in assay [15], in [16], in assay [17] and in assay [18] was > 100 µM (inactive) throughout.
Take `O=c1c(Cc2ccc(Cl)cc2)nnc2sc(-c3ccc([N+](=O)[O-])cc3)nn12`: the GI50 is 35 µM (inactive) in [1]; 24.3 µM (inactive) in assay [3]; 25.9 µM (inactive) in assay [4]; 21.3 µM (inactive) in assay [5]; 24.7 µM (inactive) in [6]; 20 µM (inactive) in assay [7]. For the same compound, the GI50 is 23.4 µM (inactive) in assay [8]; 21.3 µM (inactive) in assay [9]; 24.3 µM (inactive) in [10]; 20 µM (inactive) in assay [11]; 16.9 µM (inactive) in assay [19]; 29.8 µM (inactive) in assay [12]. In addition, the GI50 in assay [13] was 24.4 µM (inactive); in assay [14], 17.1 µM (inactive); in [15], 49.1 µM (inactive); in assay [16], 32.1 µM (inactive); in [17], 14.5 µM (inactive); in assay [18], 29 µM (inactive).
As to `C/C=C(C)/C=C/CC(C)CCC=C(C)C` (configuration not stated), the GI50 in assay [1], in assay [2], in assay [3], in [4], in assay [6] and in assay [7] was > 100 µM (inactive) in each case. Besides, the GI50 in assay [9] was > 100 µM (inactive); in assay [10], > 100 µM (inactive); in assay [11] it was > 100 µM (inactive); in assay [19] it was > 100 µM (inactive); in [12] it was > 100 µM (inactive); in [13] it was 44.5 µM (inactive). Moreover, the GI50 in assay [14], in [16], in [17] and in assay [18] was > 100 µM (inactive) throughout.
As to `COc1ccc(Oc2cccc(/C=C3/C(=O)Nc4ccccc43)c2)cc1`, the GI50 in assay [1] was 16.9 µM (inactive); in assay [2], 15 µM (inactive); in assay [3], 7.19 µM (inactive); in assay [4], 11.6 µM (inactive); in assay [7], 3.6 µM (inactive); in assay [8] it was 11.2 µM (inactive). The GI50 was 6.82 µM (inactive) in assay [9]; 3.94 µM (inactive) in assay [10]; 12.2 µM (inactive) in assay [11]; 11.9 µM (inactive) in assay [19]; 14.1 µM (inactive) in assay [12]; 3.05 µM (inactive) in [13]. Besides, the GI50 in assay [14] was 5.79 µM (inactive); in [15] it was 14.8 µM (inactive); in assay [16] it was 4.91 µM (inactive); in assay [17], 3.58 µM (inactive); in assay [20], 1.77 µM (inactive); in [18] it was 1.91 µM (inactive).
On to `CSc1nc(O)c(C#N)c(-c2ccccc2)n1`, for which the GI50 in [1], in assay [2], in [3], in assay [4], in assay [5] and in assay [7] was > 100 µM (inactive) each time. The GI50 in [9] was 78.3 µM (inactive); in assay [10] it was > 100 µM (inactive); in assay [11], > 100 µM (inactive); in assay [19], > 100 µM (inactive); in assay [12], > 100 µM (inactive); in assay [13], > 100 µM (inactive). Besides, the GI50 is > 100 µM (inactive) in [14]; > 100 µM (inactive) in assay [15]; > 100 µM (inactive) in assay [16]; > 100 µM (inactive) in assay [17]; 64.9 µM (inactive) in assay [20]; > 100 µM (inactive) in assay [18].
Turning to `COC(=O)[C@H]1CO[C@H]2C/C(C)=C/CC/C(C)=C/CC[C@@]3(C)O[C@@H]3C[C@H]21`, the GI50 in [1] was 14.7 µM (inactive); in assay [2], 14.4 µM (inactive); in assay [3] it was 16.3 µM (inactive); in assay [4] it was 17.5 µM (inactive); in [5] it was 14.1 µM (inactive); in assay [7], 9.91 µM (inactive). Moreover, the GI50 is 13.4 µM (inactive) in assay [9]; 12.9 µM (inactive) in [10]; 22.9 µM (inactive) in assay [11]; 16.3 µM (inactive) in assay [19]; 23.7 µM (inactive) in [12]; 10.7 µM (inactive) in assay [13]. Further, the GI50 in assay [14] was 18.4 µM (inactive); in assay [15], 15.8 µM (inactive); in assay [16] it was 10.7 µM (inactive); in assay [17], 11.5 µM (inactive); in assay [20], 20.5 µM (inactive); in assay [18], 18.6 µM (inactive).
For the compound `c1ccc2c(Cc3nnc4sc(SSc5nn6c(Cc7c[nH]c8ccccc78)nnc6s5)nn34)c[nH]c2c1`, the GI50 is 26.4 µM (inactive) in [1]; 48.2 µM (inactive) in assay [2]; 28.8 µM (inactive) in assay [3]; 26.4 µM (inactive) in [4]; 16 µM (inactive) in [7]; 31.3 µM (inactive) in [8]. Besides, the GI50 is 14.5 µM (inactive) in assay [9]; 18.8 µM (inactive) in assay [10]; 11.3 µM (inactive) in assay [11]; 18.5 µM (inactive) in assay [19]; 26.3 µM (inactive) in [12]; 24.2 µM (inactive) in [13]. Also, the GI50 in assay [14] is 33 µM (inactive); in assay [15] it was 16.2 µM (inactive); in [16], 20.3 µM (inactive); in [17], 19 µM (inactive); in assay [20] it was 23.2 µM (inactive); in [18], 21.7 µM (inactive).
For `OCc1ccc2c(c1)CC1(C2)Cc2cc3c(cc2C1O)CCC3` (configuration not stated), the GI50 in assay [1] is 5.74 µM (inactive); in [2], 3.85 µM (inactive); in assay [3] it was 6.43 µM (inactive); in assay [4] it was 6.67 µM (inactive); in [5], 3.18 µM (inactive); in assay [7], 3.37 µM (inactive). Further, the GI50 in assay [8] was 5.01 µM (inactive); in [9], 5.9 µM (inactive); in [10] it was 2.77 µM (inactive); in assay [11], 4.44 µM (inactive); in [19] it was 3.4 µM (inactive); in assay [12] it was 9.1 µM (inactive). The GI50 in [13] was 2.2 µM (inactive); in assay [14] it was 2.3 µM (inactive); in assay [15], 4.49 µM (inactive); in assay [16] it was 2.58 µM (inactive); in assay [17], 0.65 µM (active); in [20], 1.36 µM (inactive). The GI50 in [18] is 3.3 µM (inactive).
